Measured values as given in ChEMBL document CHEMBL1629546 (Antimicrob Agents Chemother, 2008).
In brackets after ≈: the same amount, converted by molar mass. Activity calls are given as the source filed them. The rule behind the calls is not given here.

Columns and labels:
Bacillus anthracis [1] = conditions: in vivo
Bacillus anthracis [2] = assay: Antimicrobial activity against Bacillus anthracis infected in in vitro hollow fiber PK/PD model assessed as bacterial regrowth at 100 mg administered once every 24 hrs; type: functional, organism-based
Bacillus anthracis [3] = assay: Antimicrobial activity against Bacillus anthracis infected in in vitro hollow fiber PK/PD model assessed as bacterial regrowth at 200 mg administered once every 24 hrs; type: functional, organism-based
Bacillus anthracis [4] = assay: Antimicrobial activity against Bacillus anthracis infected in in vitro hollow fiber PK/PD model assessed as bacterial regrowth at 300 mg administered once every 24 hrs; type: functional, organism-based
Bacillus anthracis [5] = assay: Antimicrobial activity against Bacillus anthracis infected in in vitro hollow fiber PK/PD model assessed as bacterial regrowth at 400 mg administered once every 24 hrs; type: functional, organism-based
Bacillus anthracis [6] = assay: Antimicrobial activity against Bacillus anthracis infected in in vitro hollow fiber PK/PD model assessed as bacterial regrowth at 500 mg administered once every 24 hrs; type: functional, organism-based
Bacillus anthracis [7] = assay: Antimicrobial activity against Bacillus anthracis infected in in vitro hollow fiber PK/PD model assessed as bacterial regrowth at 600 mg administered once every 24 hrs; type: functional, organism-based
Bacillus anthracis [8] = assay: Antimicrobial activity against Bacillus anthracis infected in in vitro hollow fiber PK/PD model assessed as prevention of bacterial regrowth at 700 mg administered once every 24 hrs; type: functional, organism-based
Bacillus anthracis [9] = assay: Antimicrobial activity against Bacillus anthracis infected in in vitro hollow fiber PK/PD model assessed as prevention of bacterial regrowth at 800 mg administered once every 24 hrs; type: functional, organism-based
Bacillus anthracis [10] = assay: Antimicrobial activity against Bacillus anthracis infected in in vitro hollow fiber PK/PD model assessed as cell killing at 200 mg administered once every 24 hrs; type: functional, organism-based
Bacillus anthracis [11] = assay: Antimicrobial activity against Bacillus anthracis infected in in vitro hollow fiber PK/PD model assessed as cell killing at 300 mg administered once every 24 hrs; type: functional, organism-based
Bacillus anthracis [12] = assay: Antimicrobial activity against Bacillus anthracis infected in in vitro hollow fiber PK/PD model assessed as cell killing at 400 mg administered once every 24 hrs; type: functional, organism-based
Bacillus anthracis [13] = assay: Antimicrobial activity against Bacillus anthracis infected in in vitro hollow fiber PK/PD model assessed as reduction in bacterial burden at 700 mg administered once every 24 hrs; type: functional, organism-based
Bacillus anthracis [14] = assay: Antimicrobial activity against Bacillus anthracis infected in in vitro hollow fiber PK/PD model assessed as bacterial killing at 800 mg administered once every 24 hrs; type: functional, organism-based
Bacillus anthracis [15] = assay: Antimicrobial activity against Bacillus anthracis infected in in vitro hollow fiber PK/PD model assessed as cell killing at 800 mg administered as 4 divided doses every 6 hrs; type: functional, organism-based
Bacillus anthracis [16] = assay: Antimicrobial activity against Bacillus anthracis infected in in vitro hollow fiber PK/PD model assessed as cell killing at 800 mg administered as 2 divided doses every 12 hrs; type: functional, organism-based
Bacillus anthracis [17] = assay: Antimicrobial activity against Bacillus anthracis infected in in vitro hollow fiber PK/PD model assessed as cell killing at 800 mg administered once every 24 hrs; type: functional, organism-based
Bacillus anthracis [18] = assay: Antimicrobial activity against wild-type Bacillus anthracis; type: functional
Bacillus anthracis [19] = assay: Antimicrobial activity against Bacillus anthracis infected in in vitro hollow fiber PK/PD model assessed as bacterial killing at 500 mg administered once every 24 hrs for 15 days; type: functional, organism-based
Bacillus anthracis [20] = assay: Antimicrobial activity against Bacillus anthracis infected in in vitro hollow fiber PK/PD model assessed as bacterial killing at 600 mg administered once every 24 hrs for 15 days; type: functional, organism-based
Bacillus anthracis [21] = conditions: in vivo, 24 h
Bacillus anthracis [22] = conditions: in vivo, 24 h; remark: listed apart in the source
Bacillus anthracis [23] = conditions: in vivo, 24 h; remark: listed apart in the source
Bacillus anthracis [24] = conditions: in vivo, 24 h; remark: listed apart in the source
Bacillus anthracis [25] = conditions: in vivo, 24 h; remark: listed apart in the source
Bacillus anthracis [26] = conditions: in vivo, 24 h; remark: listed apart in the source
Bacillus anthracis [27] = conditions: in vivo, 24 h; remark: listed apart in the source
Bacillus anthracis [28] = conditions: in vivo, 24 h; remark: listed apart in the source
Bacillus anthracis [29] = conditions: in vivo, 24 h; remark: listed apart in the source
Bacillus anthracis [30] = conditions: in vivo; remark: listed apart in the source
Bacillus anthracis [31] = conditions: in vivo; remark: listed apart in the source
Bacillus anthracis [32] = conditions: in vivo, 24 h; remark: listed apart in the source
Bacillus anthracis [33] = conditions: in vivo; remark: listed apart in the source
Bacillus anthracis [34] = conditions: in vivo; remark: listed apart in the source
Bacillus anthracis [35] = conditions: in vivo, 24 h; remark: listed apart in the source
Bacillus anthracis [36] = conditions: in vivo, 24 h; remark: listed apart in the source
Bacillus anthracis [37] = conditions: in vivo; remark: listed apart in the source
Bacillus anthracis [38] = conditions: in vivo; remark: listed apart in the source
Bacillus anthracis [39] = conditions: in vivo; remark: listed apart in the source
Bacillus anthracis [40] = conditions: in vivo; remark: listed apart in the source
Bacillus anthracis [41] = conditions: in vivo; remark: listed apart in the source
Bacillus anthracis [42] = conditions: in vivo, 24 h; remark: listed apart in the source

In the case of `O=C(O)c1cn(C2CC2)c2cc(N3CCNCC3)c(F)cc2c1=O` [CIPROFLOXACIN], the fAUC (Bacillus anthracis [1]) is reported as 22356 ng·h/mL.

For `CC(=O)NC[C@H]1CN(c2ccc(N3CCOCC3)c(F)c2)C(=O)O1` [LINEZOLID], the Activity (Bacillus anthracis [2]) was “Active”, the Activity (Bacillus anthracis [3]) was “Active” and the Activity (Bacillus anthracis [4]) was “Active”. For the same compound, the Activity (Bacillus anthracis [5]) was “Active”, the Activity (Bacillus anthracis [6]) was “Active” and the Activity (Bacillus anthracis [7]) was “Active”. The Activity (Bacillus anthracis [8]) was “Active”, the Activity (Bacillus anthracis [9]) was “Active” and the Activity (Bacillus anthracis [10]) was “Active”. The Activity (Bacillus anthracis [11]) was “Active”, the Activity (Bacillus anthracis [12]) was “Active” and the Activity (Bacillus anthracis [13]) was “Active”. The Activity (Bacillus anthracis [14]) was “Active”, the Activity (Bacillus anthracis [15]) was “Active” and the Activity (Bacillus anthracis [16]) was “Active”. For the same compound, the Activity (Bacillus anthracis [17]) was “Active”, the MIC (Bacillus anthracis [18]) was 3 µg/mL (≈ 8.89 µM) and the Activity (Bacillus anthracis [19]) was “Active”. The Activity (Bacillus anthracis [20]) was “Active”, the fAUC (Bacillus anthracis [21]) was 11249 ng·h/mL and the fAUC (Bacillus anthracis [22]) was 22498 ng·h/mL. The fAUC (Bacillus anthracis [23]) was 33746 ng·h/mL, the fAUC (Bacillus anthracis [24]) was 45553 ng·h/mL and the fAUC (Bacillus anthracis [25]) was 56283 ng·h/mL. For the same compound, the fAUC (Bacillus anthracis [26]) was 71422 ng·h/mL, the fAUC (Bacillus anthracis [27]) was 78508 ng·h/mL and the fAUC (Bacillus anthracis [28]) was 90106 ng·h/mL. It also gave a fAUC (Bacillus anthracis [29]) of 56283 ng·h/mL, a fAUC (Bacillus anthracis [30]) of 56258 ng·h/mL and a fAUC (Bacillus anthracis [31]) of 56245 ng·h/mL. It also gave a fAUC (Bacillus anthracis [32]) of 71422 ng·h/mL, a fAUC (Bacillus anthracis [33]) of 71300 ng·h/mL and a fAUC (Bacillus anthracis [34]) of 71540 ng·h/mL. It also gave a fAUC (Bacillus anthracis [35]) of 91106 ng·h/mL, a fAUC (Bacillus anthracis [36]) of 91106 ng·h/mL and a fAUC (Bacillus anthracis [37]) of 91216 ng·h/mL. It also gave a fAUC (Bacillus anthracis [38]) of 91284 ng·h/mL, a fAUC (Bacillus anthracis [39]) of 36244 ng·h/mL and a fAUC (Bacillus anthracis [40]) of 74371 ng·h/mL. The fAUC (Bacillus anthracis [1]) was 90081 ng·h/mL, the fAUC (Bacillus anthracis [41]) was 115702 ng·h/mL and the fAUC (Bacillus anthracis [42]) was 78508 ng·h/mL.
